Data published in article PMC10258794, “To Fold or Not to Fold: Diastereomeric Optimization of an α-Helical Antimicrobial Peptide” (Journal of Medicinal Chemistry, 2023).
Values after ≈ are worked out from the molar mass of the structure shown. Where two headings read alike, the source gives them in different places. Non-standard residues stand in square brackets, D forms with d. No end group written: not given here.

What was measured:
[1] = tested on: S. aureus Newman; conditions: for MIC S. aureus Newman: MH broth pH 7.4, 16–20 h, 37 °C; for MIC S. aureus Newmann: supplementary CSV
[2] = tested on: Stenotrophomonas maltophilia; test: microbe, parasite or virus in culture; type: cell-based; conditions: pH 7.4
In short: (§1)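 Twofold dilution series vs. bacteria (OD600 0.022 dilution, about 5 × 10^5 CFU) in Mueller–Hinton pH 7.4. Incubated 37 °C, 16–20 h, static. MTT added; visual yellow endpoint = MIC.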

[3] = tested on: P. aeruginosa ZEM9A; test: microbe, parasite or virus in culture; type: cell-based, Pseudomonas aeruginosa; conditions: pH 7.4
In short: as §1

[4] = tested on: P. aeruginosa PAO1; test: Time-killing kinetic assay; type: cell-based, Pseudomonas aeruginosa; conditions: P. aeruginosa PAO1, 4 × MIC, pH 7.4
Procedure: A single colony of P. aeruginosa PAO1 was picked and grown overnight with shaking (180 rpm) in LB (Sigma-Aldrich, Buchs, Switzerland) medium 5 mL overnight at 37 °C. The overnight bacterial culture was diluted to OD600 0.002 (2 × 10^6 CFU/mL) in fresh MH medium. Stock solutions of AMPs in sterilized milliQ water were prepared in 1 mg/mL and were diluted to two times more than required concentration in fresh MH (Sigma-Aldrich, Buchs, Switzerland) medium at pH 7.4. 100 μL of prepared bacteria solution in MH and 100 μL of samples in MH were mixed in a 96-well microtiter plate (TPP, untreated, Corning Incorporated, Kennebunk, USA). Untreated bacteria at 1 × 10^6 CFU/mL were used as a growth control. 96-well microtiter plates were incubated in 37 °C with shaking (180 rpm). Surviving bacteria were quantified at 0, 0.5, 1, 2, 3, 4, 5, and 6 h by plating 10-fold dilutions of the sample in sterilized normal saline on LB agar plates. LB agar plates were incubated at 37 °C for 10 h, and the number of individual colonies was counted at each timepoint. The assay was performed in triplicate in the biosafety level 2 lab.

[5] = tested on: K. pneumoniae Oxa-48; test: MIC broth microdilution, K. pneumoniae Oxa-48; type: cell-based, Klebsiella pneumoniae; conditions: MDR strain; MH broth pH 7.4, 16–20 h, 37 °C
In short: as §1

[6] = 24 h, […] human serum in TRIS buffer pH 7.4, 37 °C
Procedure: Human serum was diluted in 0.1 M filtered TRIS buffer (pH 7.4) (25%, 1:3, v/v). Selected peptides were diluted in 0.1 M filtered TRIS buffer (pH 7.4) to a concentration of 400 μM, and 0.1 mg/mL 4- hydroxybenzoic acid was added as an internal standard. Aliquots of peptide solution (50 μL) were added to aliquots of serum (50 μL) in sterile Eppendorf tubes, to reach a peptide concentration of 200 μM during the assay. Samples were incubated at 37 °C under gentle stirring (350 rpm). Different samples (triplicates) were quenched at different time points (0/1/6/12/24 h) by precipitating serum proteins through the addition of ZnSO4·7 H2O/ACN (1:1) (0.1 M, 100 μL) and cooling in ice bath for 10 min. Protein precipitates were pelleted under centrifugation, and supernatants were then sampled and analyzed by LC–MS. Experiment controls included two references, one known to be degraded and one known to be undegraded. Peaks corresponding to the internal standard and the undegraded peptides were integrated, with the ratio peptide/standard at t = 0 h as 100%.

[7] = tested on: HEK293 cells; test: Alamar blue cytotoxicity, HEK293; type: cell-based, human; conditions: 24 h, mean ± SD, n = 3, read-out: Toxicity on HEK293 cells
In short: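 Viability read by AlamarBlue fluorescence (560/590 nm) after 3–5 h with 10% reagent, relative to untreated controls. Beforehand, cells got rising compound doses for 24 h at 37 °C; seeding was 8000/well for A549 in RPMI-1640 and 4000/well for HEK293 in DMEM.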

[8] = tested on: P. aeruginosa PA14; test: microbe, parasite or virus in culture; conditions: for MIC PA14: MH broth pH 7.4, 16–20 h, 37 °C; for MIC P. aeruginosa PA14: supplementary CSV
In short: as §1

[9] = tested on: Enterobacter cloacae; test: microbe, parasite or virus in culture; conditions: pH 7.4
In short: as §1

[10] = tested on: PA14 2P4 (pmrB); test: microbe, parasite or virus in culture; conditions: supplementary CSV
In short: as §1

[11] = tested on: PA14 4.18 (pmrB); test: microbe, parasite or virus in culture; conditions: supplementary CSV
In short: as §1

[12] = tested on: PA14 4.13 (phoQ); test: microbe, parasite or virus in culture; conditions: supplementary CSV
In short: as §1

[13] = tested on: P. aeruginosa ZEM-1A; test: microbe, parasite or virus in culture; conditions: pH 7.4
In short: as §1

[14] = tested on: Burkolderia cenocepacia; test: microbe, parasite or virus in culture; conditions: for MIC Burkolderia cenocepacia: MDR strain, MH broth pH 7.4, 16–20 h, 37 °C; for MIC B. cenocepacia: supplementary CSV
[15] = tested on: Pseudomonas aeruginosa, Klebsiella pneumoniae, Acinetobacter baumannii, Escherichia coli, and methicillin-resistant Staphylococcus aureus; conditions: summary of Table 1
In short: as §1

[16] = tested on: E. coli W3110
In short: as §1

[17] = tested on: S. aureus COL MRSA; conditions: for MIC S. aureus COL MRSA: MH broth pH 7.4, 16–20 h, 37 °C; for MIC S. aureus COL: supplementary CSV, ranges of Table 1 given as one number
In short: as §1

[18] = tested on: K. pneumoniae NCTC418
In short: as §1

[19] = tested on: P. aeruginosa PAO1
In short: as §1

[20] = tested on: A. baumannii ATCC19606
In short: as §1

[21] = tested on: A549 cells; test: Alamar blue cytotoxicity, A549; type: cell-based, human; conditions: 24 h, mean ± SD, n = 3, read-out: Toxicity on A549 lung cancern cells
Procedure: The A549 human lung adenocarcinoma cells are derived from a patient and were kindly given to us by Dr. Georgia Konstatinidou (Pharmacology Institute, Bern University). HEK293T cells were obtained from ATCC (CRL-11268). A549 and HEK293 were cultured in an incubator at 37 °C with 5% CO2 in RPMI-1640 (Gibco) and DMEM (Gibco) containing 10% fetal bovine serum (Thermo Fisher), 100 I.U./mL penicillin, and 100 μg/mL streptomycin (Gibco).
The viability of the cells was assessed with an AlamarBlue assay (ThermoFisher). Cells were seeded into 96-well plates, 4000 cells/well (HEK293) and 8000 cells/well (A549), the day before the experiment. Cells were then treated with the increasing concentration of the compound and incubated for 24 h at 37 °C in the presence of 5% CO2. The next day, the medium was removed and replaced by a 10% AlamarBlue solution in full growth medium (DMEM or RPMI-1640). The cells were incubated for 3–5 h at 37 °C with 5% CO2 in a humidified atmosphere. The fluorescence was then measured on a Tecan Infinite M1000 Pro plate reader at λex 560 nm and λem 590 nm. The value was normalized according to the untreated cells.

[22] = tested on: Staphylococcus epidermis; test: MIC broth microdilution, Staphylococcus epidermis; type: cell-based; conditions: for MIC Staphylococcus epidermis: pH 7.4
In short: as §1

[23] = tested on: S. aureus Newman; test: microbe, parasite or virus in culture; conditions: Staphylococcus aureus, pH 7.4, read-out: MIC S. aureus Newman
[24] = biological target: the molecule itself; test: crystal structure; co-crystallisation of the C-fucosylated peptide with LecB, sitting drop vapor diffusion, 18 °C; LecB 5 mg/mL in water with 6 mM CaCl2 and MgCl2; peptide at 5:1 molar excess over the LecB monomer
[25] = MH broth pH 7.4, 16–20 h, 37 °C
[26] = supplementary CSV, ranges of Table 1 given as one number

Molecule | MIC S. aureus Newman [1] [µg/mL] | MIC S. aureus Newmann [1] [µg/mL] | MIC Stenotrophomonas maltophilia [2] [µg/mL] | MIC ZEM9A [3] [µg/mL] | MIC K. pneumoniae Oxa-48 [5] [µg/mL] | serum stability [6] | IC50 [7] [µM] | MIC PA14 [8] [µg/mL] | MIC P. aeruginosa PA14 [8] [µg/mL] | MIC Enterobacter cloacae [9] [µg/mL] | MIC P. aeruginosaPA14 2P4 [10] [µg/mL] | MIC P. aeruginosa PA14 4.18 [11] [µg/mL] | MIC P. aeruginosa PA14 4.13 [12] [µg/mL] | MIC ZEM-1A [13] [µg/mL] | MIC Burkolderia cenocepacia [14] [µg/mL] | MIC B. cenocepacia [14] [µg/mL] | MIC E. coli W3110 [16, 25] [µg/mL] | MIC S. aureus COL MRSA [17] [µg/mL] | MIC S. aureus COL [17] [µg/mL] | MIC K. pneumoniae NCTC418 [18, 25] [µg/mL] | other results
CC(C)C[C@H](NC(=O)[C@H](CCCCN)NC(=O)[C@H](N)CCCCN)C(=O)N[C@@H](CC(C)C)C(=O)N[C@@H](CCCCN)C(=O)N[C@@H](CC(C)C)C(=O)N[C@@H](CC(C)C)C(=O)N[C@@H](CCCCN)C(=O)N[C@@H](CC(C)C)C(=O)N[C@@H](CC(C)C)C(=O)N[C@H](CC(C)C)C(N)=O [HP5] | 2 (≈ 1.51 µM) | 2 (≈ 1.51 µM) | 2 (≈ 1.51 µM) | 4 (≈ 3.03 µM) | 2 (≈ 1.51 µM) | entirely stabilize | 93.2 ± 0.1 | 2 (≈ 1.51 µM) | 2 (≈ 1.51 µM) | 2 (≈ 1.51 µM) | 32 (≈ 24.2 µM) | 16 (≈ 12.1 µM) | 4 (≈ 3.03 µM) | 2 (≈ 1.51 µM) | >64 | > 64 | 0.5 (≈ 0.378 µM) | 2 (≈ 1.51 µM) | 2 (≈ 1.51 µM) | 2 (≈ 1.51 µM) | time to complete killing of bacteria [4]: ≤ 1 h; MIC, span over the five bacterial strains [15]: 0.5 to 4 µg/mL; MIC K. pneumoniae NCTC418 [18, 26]: 2 µg/mL (≈ 1.51 µM); MIC P. aeruginosa PAO1 [19, 25]: 2 µg/mL (≈ 1.51 µM); MIC P. aeruginosa PAO1 [19, 26]: 2 µg/mL (≈ 1.51 µM); MIC A. baumannii ATCC19606 [20, 25]: 0.5 µg/mL (≈ 0.378 µM); IC50 [21]: 18.9 ± 3.6 µM; MIC Staphylococcus epidermis [22]: 2 µg/mL (≈ 1.51 µM)
CN[C@H](CC(C)C)C(=O)N[C@H]1C(=O)N[C@@H](CC(N)=O)C(=O)N[C@H]2C(=O)N[C@H]3C(=O)N[C@H](C(=O)N[C@H](C(=O)O)c4cc(O)cc(O)c4-c4cc3ccc4O)[C@H](O)c3ccc(c(Cl)c3)Oc3cc2cc(c3O[C@@H]2O[C@H](CO)[C@@H](O)[C@H](O)[C@H]2O[C@H]2C[C@](C)(N)[C@H](O)[C@H](C)O2)Oc2ccc(cc2Cl)[C@H]1O [Vancomycin, vancomycin, reference compound] | – | – | – | – | – | – | – | – | – | – | – | – | – | – | – | – | – | – | – | – | MIC [23]: 0.5 µg/mL (≈ 0.345 µM); MIC ([22]; Staphylococcus, pH 7.4, read-out: MIC Staphylococcus epidermis): 0.5 µg/mL (≈ 0.345 µM)
CC(C)C[C@@H](NC(=O)[C@@H](CC(C)C)NC(=O)[C@@H](CC(C)C)NC(=O)[C@H](CCCCN)NC(=O)[C@@H](CC(C)C)NC(=O)[C@@H](CC(C)C)NC(=O)[C@H](CCCCN)NC(=O)[C@@H](CC(C)C)NC(=O)[C@@H](CC(C)C)NC(=O)[C@H](CCCCN)NC(=O)[C@@H](N)CCCCN)C(N)=O [dln69, KKllKllKlll] | 1 (≈ 0.757 µM) | 1 (≈ 0.757 µM) | 2 (≈ 1.51 µM) | 8 (≈ 6.05 µM) | 8 (≈ 6.05 µM) | entirely degraded | 87 ± 2 | 1 (≈ 0.757 µM) | 1 (≈ 0.757 µM) | 4 (≈ 3.03 µM) | 16 (≈ 12.1 µM) | 8 (≈ 6.05 µM) | 2 (≈ 1.51 µM) | 4 (≈ 3.03 µM) | >64 | > 64 | 0.5 to 1 | 2 (≈ 1.51 µM) | 2 (≈ 1.51 µM) | 4 (≈ 3.03 µM) | MIC E. coli W3110 [16, 26]: 1 µg/mL (≈ 0.757 µM); MIC K. pneumoniae NCTC418 [18, 26]: 4 µg/mL (≈ 3.03 µM); MIC P. aeruginosa PAO1 [19, 25]: 2 to 4 µg/mL; MIC P. aeruginosa PAO1 [19, 26]: 3 µg/mL (≈ 2.27 µM); MIC A. baumannii ATCC19606 [20, 25]: 2 µg/mL (≈ 1.51 µM); MIC A. baumannii ATCC19606 [20, 26]: 2 µg/mL (≈ 1.51 µM); IC50 [21]: 7.2 ± 6.5 µM; MIC Staphylococcus epidermis [22]: 4 µg/mL (≈ 3.03 µM)
{α‑L‑fucosyl‑acetyl}-K[dK]L[dL]K[dL]L[dK]L[dL]L (also called fucosylated analogue of HP30; source: synthetic peptide (Fmoc solid-phase synthesis on Tentagel S RAM resin, preparative RP-HPLC)) [FHP30] | – | – | – | – | – | – | – | – | – | – | – | – | – | – | – | – | – | – | – | – | stoichiometry N [24]: 4
